Source: patent US7772255B2, “Method of treating tumors with azaxanthones” (Supratek Pharma, Inc., priority 2005, dated 2010)
Where two headings read alike, the source gives them in different places.

Columns and labels:
[1] = Pharmacokinetics in normal dogs; format: in vivo, dog (Canis familiaris); conditions: 10 mg/kg
Experimental: Experiments were performed in 6 male Beagle dogs (Canis familiaris) (from 8 to 14 kg body weight, 2 to 3 years of age). The animals had ad libitum access to tap water. Commercial dog chow was provided to the animals once daily during a 2-hour feeding period.
Dosing solution of amlexanox salt was prepared by simple dissolving of amlexanox salt in water. Dosing solution of amlexanox acid was prepared suspending of amlexanox acid in 0.5% methyl cellulose.
Amlexanox acid and Na salt forms were orally administered by gavage in dogs (three animals in each group) at doses of 10 mg/kg. Amlexanox tablets L and CP, prepared according to Example 13, were administered to dogs orally at doses of 10 mg/kg. After various time intervals (pre-dose, 15, 30 min and 1, 2, 3, 6, 8, 12, 24 and 48 h) post-injection, blood was collected from the jugular vein of animals. Then, blood was immediately centrifuged, and plasma was separated. The plasma samples were immediately frozen in dry ice and stored at −80° C. until further use.
(§1) The defrosted plasma samples were centrifuged at 2000 g for 5 min, and aliquots (10 μL) of each sample were transferred into 1.5-ml plastic tubes. The samples were diluted with PBS in various amounts of times and aliquots of 100 μL were transferred into the other 1.5-ml plastic tubes. The samples were extracted with 1 mL of 100% acetonitrile for 10 min on 180° rotator. Then, the tubes were centrifuged at 10,000 g for 15 min.
(§2) The supernatant was separated to glass tubes and evaporated in a stream of nitrogen at […]. until dryness. The dried samples were kept at −20° C. until HPLC analysis. The samples were reconstituted in 100 μL of mobile phase analyze before analyze by HPLC.
(§3) The samples were analysed by HPLC using 250×4.6 mm, Phenomenex C18 Luna, 5 micron column, 1 mL/min flow rate of mobile phase 73% of 25 mM sodium phosphate pH 7.5 and 27% acetonitrile; fluorescent deyection λexcitation=348 nm, λemission=404 nm.
The concentrations of amlexanox in samples were determined by comparison with calibration curve obtained from spiked dog plasma samples using the same analytical method. The areas under the curves (AUC) of amlexanox were calculated by trapezoidal method.

[2] = Bioavailability and pharmacokinetics in normal rats; format: in vivo, rat; conditions: for AUC / Cmax / MRT / half-life / bioavailability: female, CD, rat, plasma, po; for AUC / Cmax / MRT / half-life / CL / Vss: rat plasma, acid suspended in 1% methyl cellulose; for bioavailability: acid, read-out: Bioavailability for oral administration; for CL / Vss: oral
Experimental: Female CD rats (from 200 to 250 g body weight) were obtained from Charles River Canada Inc. (St. Constant, Quebec, Canada). The animals were kept 4 per cage with an air filter cover under light (12 h light/dark cycle, light on at 06 h 00) and temperature (22°±1° C.)-controlled environment. All manipulations with the animals were performed under a sterilized laminar hood. The animals had ad libitum access to Purina rat chow (Pro Lab PMH 4018, Trademark of Agway, Syracuse, N.Y.) and water. The animal studies were conducted according to the “Guidelines for Care and Use of Experimental Animals”.
For Amlexanox salt the dosing solution was prepared by dissolving 20 mg of Amlexanox in equi-molar NaOH solution and then, equilibrated with 1M Tris-HCl pH 7.4. For Amlexanox acid the dosing solution was prepared by simple suspending 20 mg of Amlexanox in 1% methyl cellulose in water.
Amlexanox dosing solution (20 mg/mL) was administered i.v. and orally in normal rats (four animals in each group) at doses of 10, 25, 50, 100 and 200 mg/kg. After various time intervals (30 min and 1, 3, 6, 10 and 24 h) post-injection, blood was collected from eye vein of animals. Then, blood was immediately centrifuged, and plasma was separated. The plasma samples were immediately frozen in dry ice and stored at −80° C. until further use.
as §1, with “phosphate buttered saline (PBS)” for “PBS”
as §2, §3
The concentrations of Amlexanox in samples were determined by comparison with calibration curve obtained from spiked rat plasma samples using the same analytical method. The areas under the curves (AUC) of Amlexanox were calculated by trapezoidal method.

[3] = dog plasma, oral, listed as Amlexanox Acid

CC(C)c1ccc2oc3nc(N)c(C(=O)O)cc3c(=O)c2c1 [Amlexanox, 2-amino-7-isopropyl-1-azaxanthone-3-carboxylic acid]
AUC [1, 3]: 7600 ng·h/mL
CL [1, 3]: 21.7 mL/min/kg
Cmax [1, 3]: 3400 ng/mL
Vss [1, 3]: 4.3 L/kg
half-life ([1]; male, Beagle, dog, plasma, po): 2.3 h
MRT ([1]; male, Beagle, dog, plasma, po, read-out: MRT): 3.3 h
AUC ([2]; 10 mg/kg): 1050 ng·h/mL
Cmax ([2]; 10 mg/kg): 370 ng/mL
MRT ([2]; 10 mg/kg): 6.28 h
half-life ([2]; 10 mg/kg): 4.36 h
bioavailability ([2]; 10 mg/kg, 10 mg/kg): 31.5%
AUC ([2]; 25 mg/kg): 1380 ng·h/mL
Cmax ([2]; 25 mg/kg): 260 ng/mL
MRT ([2]; 25 mg/kg): 11.3 h
half-life ([2]; 25 mg/kg): 7.81 h
bioavailability ([2]; 25 mg/kg, 25 mg/kg): 2.9%
AUC ([2]; 50 mg/kg): 2380 ng·h/mL
Cmax ([2]; 50 mg/kg): 580 ng/mL
MRT ([2]; 50 mg/kg): 8.43 h
half-life ([2]; 50 mg/kg): 5.84 h
bioavailability ([2]; 50 mg/kg, 50 mg/kg): 1.1%
AUC ([2]; 100 mg/kg): 8830 ng·h/mL
Cmax ([2]; 100 mg/kg): 1170 ng/mL
MRT ([2]; 100 mg/kg): 8.7 h
half-life ([2]; 100 mg/kg): 6.04 h
bioavailability ([2]; 100 mg/kg, 100 mg/kg): 2.2%
AUC ([2]; 200 mg/kg): 18600 ng·h/mL
Cmax ([2]; 200 mg/kg): 7000 ng/mL
MRT ([2]; 200 mg/kg): 5.32 h
half-life ([2]; 200 mg/kg): 3.68 h
bioavailability ([2]; 200 mg/kg, 200 mg/kg): 2.5%
CL ([2]; 10 mg/kg): 158 mL/min/kg
Vss ([2]; 10 mg/kg): 59.8 L/kg
CL ([2]; 25 mg/kg): 301.7 mL/min/kg
Vss ([2]; 25 mg/kg): 204 L/kg
CL ([2]; 50 mg/kg): 350.2 mL/min/kg
Vss ([2]; 50 mg/kg): 177.2 L/kg
CL ([2]; 100 mg/kg): 188.3 mL/min/kg
Vss ([2]; 100 mg/kg): 98.5 L/kg
CL ([2]; 200 mg/kg): 89.5 mL/min/kg
Vss ([2]; 200 mg/kg): 28.5 L/kg
